The experiment relates to CT-26 murine colorectal adenocarcinoma cell line. The experiment in a line: Anti-tumor response of CT-26 tumor-bearing BALB/c mice (syngeneic model). The class given is in vivo, mouse. An excerpt:
This experiment compared the anti-tumor response of tumor-bearing mice to treatment with one of three regimens: (i) monotherapy with a murine anti-mouse PD-1 monoclonal antibody of murine isotype IgG1 (Anti-PD1); (ii) monotherapy with trametinib and (iii) combination therapy with anti-PD1 and trametinib administered concurrently. Murine isotype IgG1 is the murine counterpart isotype to human isotype IgG4.
While human tumor cells or tumor explants can be grown in immunodeficient animals as xenografts, they cannot be used for testing immunotherapeutics because of the lack of a functional immune system. For a meaningful evaluation of immunotherapeutics or combination of immunotherapeutics with other agents, it is necessary to use a syngeneic model in which syngeneic tumors are grown in animals with an intact immune system. CT-26 is a murine colorectal adenocarcinoma cell line syngeneic to the BALB/c mouse strain. CT-26 carries a KRAS mutation that activates the mitogen-activating protein kinase pathway, which makes it a relevant model to evaluate sensitivity to trametinib (an inhibitor of mitogen-activated protein kinase kinase). This is also a relevant model system for evaluating the mechanism of action for an anti-PD-1 antibody because of the translatable molecular profile of this tumor post-anti-PD-1 therapy. […]

As for `CC(=O)Nc1cccc(-n2c(=O)n(C3CC3)c(=O)c3c(Nc4ccc(I)cc4F)n(C)c(=O)c(C)c32)c1` [trametinib, N-{3-[3-cyclopropyl-5-(2-fluoro-4-iodo-phenylamino)6,8-dimethyl-2,4,7-trioxo-3,4,6,7-tetrahydro-2H-pyrido[4,3-d]pyrimidin-1-yl]phenyl}acetamide], the “effect of trametinib on the anti-tumor effects of Anti-PD1” value (combination treatment arm) is given as “did not appear to antagonize”. Besides, the “animals with complete regression (CR)” value (end of the 23 day treatment period, 12 mice per group) is “no CRs”.

These data come from patent US10010608B2, “Combination therapies for cancer” (MERCK SHARP & DOHME CORP., priority 2013, dated 2018).
